Values quoted from earlier work in patent US8222237B2, “Progestational 3-(6,6-ethylene-17B-hydroxy-3-oxo-17A-pregna-4-ene-17A-yl)propionic acid G-lactones” (Evestra, Inc., priority 2008, dated 2012).

What was measured:
[1] = acidic conditions such as encountered in the gastric environment
[2] = from a single entity tablet
[3] = at various pH values

absolute bioavailability [2]: about 76%
solubility in water [3]: only sparingly soluble
SMILES: C[C@]12CCC(=O)C=C1[C@@H]1C[C@@H]1[C@H]1[C@@H]3[C@@H]4C[C@@H]4[C@@]4(CCC(=O)O4)[C@@]3(C)CC[C@@H]12 [drospirenone, 6β,7β,15β,16β-dimethylene-3-oxo-17α-pregn-4-ene-21,17-carbolactone]
isomerization under acidic conditions [1]: undergo isomerization to a form that is inactive
